The source of these data is patent publication EP0007398A1, “N-thio-N-methyl carbamic acid derivative, process for its preparation, its application and pesticides containing it” (priority 1978, dated 1980).

The test system of series [1] is Leptinotarsa decemlineata, Kartoffelkäfer. Briefly: Initial activity on potato leaf discs. Format: in vivo. The note with it: foliar, 96 h, read-out: % Wirkung. How it is done:
Testinsekt: Leptinotarsa decemlineata, Kartoffelkäfer Testmethode: Initialwirkung auf Blattrondellen
Kartoffelblattrondellen werden mit acetonischer Wirk- stofflösung besprüht. Pro Rondelle werden 5 frischgeschlüpfte Larven des ersten Stadiums angesetzt und bei 25°C und 60% rel. Feuchtigkeit inkubiert. Unbehandelte und mit Aceton behandelte Blattrondellen dienen als Kontrolle. Testdauer: 4 Tage. Die Resultate werden ausgedrückt als prozentuale Reduktion der Ueberlebensrate der Larven im Vergleich zu den Kontrollparzellen.

For series [2], the system named is Aedes aegypti, Gelbfiebermücke. Nature of the series: Initial activity in water against larvae. The class given is in vivo. The note with it: 168 h. How it is done:
Testinsekt: Aedes aegypti, Gelbfiebermücke Testmethode: Initialwirkung im Wasser
0,2 ml acetonische Wirkstofflösung werden mit 20 ml Leitungswasser gemischt. Pro Parzelle werden 10 Larven im letzten Larvenstadium angesetzt und bei 25°C und 60% rel. Feuchtigkeit inkubiert bis zum Schlüpfen der Adulten in den Kontrollparzellen. Unbehandeltc und mit Aceton behandelte Parzellen dienen als Kontrollen. Testdauer: 7 Tage. Die Wirkung wird ausgedrückt als prozentuale Reduktion der Zahl normaler Adulter im Vergleich zu den Kontrollparzellen.

Series [3] in a line: Water solubility. Format: physicochemical. The note with it: qualitative statement. An excerpt: Die Verbindung der Formel I ist wasserunlöslich und kann nach irgendeiner der für unlösliche Verbindungen üblichen Methoden konfektioniert werden.
Series [4] is described as follows: Acute oral toxicity in the mouse. Particulars: in vivo, Maus, read-out: akute orale Toxizität. How it is done:
Die Verbindung wirkt als direktes Insektizid. Sie hat auch systemische Aktivität. Sie zeichnet sich unter Praxisbedingungen durch eine besonders günstige Wirkungsdauer aus. Die Verbindung ist ferner von Wert für die Bekämpfung von Schädlingen bei Tieren. So zeigt beispielsweise die Verbindung der Formel I in einer Konzentration von 10^-7 g/ml im Test gegen Aedes aegypti eine Wirkung von 100%. Die akute orale Toxizität an der Maus beträgt mehr als 1000 mg/kg.

Series [5] in a line: UV stability. Format: physicochemical. Particulars: qualitative statement.
Series [6] deals with Epilachna chrysomelina, Gurkenkäfer. Briefly: Persistence test on treated pumpkin plants (7 days at 30°C with UV irradiation before infestation). Format: in vivo. The note with it: 168 h, wettable powder per Beispiel 2, 7 days 30°C + UV, then 10 first-instar larvae per plant, reduction of survival rate vs control, read-out: % Wirkung. How it is done: Testinsekt: Epilachna chrysomelina, Gurkenkäfer Testmethode: Persistenztest
Kürbispflanzen werden bis zum Abtropfen behandelt. Nach dem Antrocknen werden die Pflanzen in einem Ecophyten bei 30°C und UV-Bestrahlung während 7 Tagen inkubiert. Nach der Inkubation werden pro Pflanze 10 Larven des ersten Stadiums angesetzt. Die Resultate werden ausgedrückt als prozentuale Reduktion der Ueberlebensrate der Epilachna-Larven im Vergleich zu den Kontrollparzellen.
Die Formulierung der Wirkstoffe erfolgte gemäss Beispiel 2. ai = Wirkstoff

Series [7] relates to Leptinotarsa decemlineata, Kartoffelkäfer. Nature of the series: Persistence test on treated potato plants (7 days at 30°C with UV irradiation before infestation). Format: in vivo. The note with it: 168 h, wettable powder per Beispiel 2, 7 days 30°C + UV, then 10 first-instar larvae per plant, reduction of survival rate vs control, read-out: % Wirkung. How it is done: Testinsekt: Leptinotarsa decemlineata, Kartoffelkäfer Testmethode: Persistenztest
Kartoffelpflanzen werden bis zum Abtropfen behandelt. Nach dem Antrocknen werden die Pflanzen in einem Ecophyten bei 30°C und UV-Bestrahlung während 7 Tagen inkubiert. Nach der Inkubation werden pro Pflanze 10 Larven des ersten Stadiums angesetzt. Die Resultate werden ausgedrückt als prozentuale Reduktion der Ueberlebensrate der Leptinotarsa-Larven im Vergleich zu den Kontrollparzellen.
Die Formulierung der Wirkstoffe erfolgte gemäss Beispiel 2 ai = Wirkstoff

The structures appear in SMILES notation. Read-outs that look alike come from different tables or passages of the source.

On to `CN(SN(C)C(=O)Oc1cccc2c1OC(C)(C)O2)C(=O)Oc1cccc2c1OC(C)(C)O2` [Formel I, Bis-[2,3-(isopropylidendioxy)-phenyl]-thio-bis-N-methylcarbamat], for which, in series [1], the mortality at 1e-09 g/cm2 turned out to be 0%, the mortality at 1e-08 g/cm2 came to 79% and the mortality at 1e-07 g/cm2 stood at 100%. Also, in series [2] (read-out: % Wirkung), the mortality at 0.01 µg/mL came out at 13%, the mortality at 0.1 µg/mL amounted to 100% and the mortality at 1 µg/mL was 100%. In addition, the mortality at 0.1 µg/mL in series [2] (read-out: Wirkung) worked out at 100%. Besides, the Wasserlöslichkeit result in series [3] is “wasserunlöslich”. In series [4], the LD50 is greater than 1000 mg/kg. Also, the UV-Stabilität entry in series [5] was “hohe UV-Stabilität”.

For the compound `CNC(=O)Oc1cccc2c1OC(C)(C)O2` [Formel II], the mortality at 0.01 % in series [6] (Konz. 0,01 % ai) is 30%; in series [7] (Konz. 0,01 % ai) it was 5%. Moreover, the mortality at 0.03 % worked out at 100% in series [6] (Konz. 0,03 % ai) and 95% in series [7] (Konz. 0,03 % ai). The mortality at 1e-07 g/cm2 in series [1] (Dosis 10^-7 g ai/cm^2, acetone solution, first-instar larvae, 25°C, 60% rel. humidity, 4 days, reduction of survival rate vs control) came out at 100%. For the same compound, the mortality at 1e-08 g/cm2 in series [1] (Dosis 10^-8 g ai/cm^2, acetone solution, first-instar larvae, 25°C, 60% rel. humidity, 4 days, reduction of survival rate vs control) was found to be 8%. For the same compound, the mortality at 1e-09 g/cm2 in series [1] (Dosis 10^-9 g ai/cm^2, acetone solution, first-instar larvae, 25°C, 60% rel. humidity, 4 days, reduction of survival rate vs control) is 0%. The mortality at 1 µg/mL in series [2] (Dosis 10^-6 g ai/ml Wasser, last-instar larvae, 25°C, 7 days, reduction of number of normal adults vs control, read-out: % Wirkung) stood at 100%. Moreover, the mortality at 0.1 µg/mL in series [2] (Dosis 10^-7 g ai/ml Wasser, last-instar larvae, 25°C, 7 days, reduction of number of normal adults vs control, read-out: % Wirkung) is 2%. Moreover, the mortality at 0.01 µg/mL in series [2] (Dosis 10^-8 g ai/ml Wasser, last-instar larvae, 25°C, 7 days, reduction of number of normal adults vs control, read-out: % Wirkung) worked out at 0%.
